Biological target: MhuDCH (Mycobacterium tuberculosis, UniProt P9WKH3)
Format: binding
Conditions: second site (MhuD-diheme); 5 μM protein, 50 mM Tris pH 7.4, 150 mM NaCl

Chain of MhuDCH (P9WKH3 whole entry): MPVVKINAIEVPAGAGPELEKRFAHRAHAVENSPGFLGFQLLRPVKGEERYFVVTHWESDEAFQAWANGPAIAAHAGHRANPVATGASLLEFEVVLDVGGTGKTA

`C=CC1=C(C)C2=Cc3c(C=C)c(C)c4[n]3[Fe][n]3c(c(C)c(CCC(=O)O)c3=CC3=NC(=C4)C(C)=C3CCC(=O)O)=CC1=N2` [heme] was tested, and the Kd2 was 3.3 ± 1.1 µM.

From PMC6529808 (Metallomics : integrated biometal science, 2018)
